According to paper PMC2409929 (British Journal of Cancer, 2004):
Marks after values point to notes of the source that are not given here.

System: patients with metastatic colorectal cancer
Assay: Toxicity graded by NCI-CTC in the phase II trial
Type: in vivo, human
Conditions: for Anaemia, Grade 3–4, %Patients / Anaemia, all grades, %Patients / Leukocytopenia, Grade 3–4, %Patients / Leukocytopenia, all grades, %Patients / Neutropenia, Grade 3–4, %Patients / Neutropenia, all grades, %Patients / Thrombocytopenia, Grade 3–4, %Patients / Thrombocytopenia, all grades, %Patients: worst grade during study
Method: Haematology was checked weekly.
Otherwise, they were analysed by nonparametric methods. […] All tests for significance were two-tailed.

[1] = arm A (350 mg m^−2 90-min i.v. q3 weeks)
[2] = arm A (350 mg m^−2 90-min i.v. q3 weeks), possibly or probably related
[3] = arm B (125 mg m^−2 90-min i.v. weekly × 4 q6 weeks)
[4] = arm B (125 mg m^−2 90-min i.v. weekly × 4 q6 weeks), possibly or probably related
[5] = arm C (250 mg m^−2 90-min i.v. q2 weeks)

With `CCc1c2c(nc3ccc(OC(=O)N4CCC(N5CCCCC5)CC4)cc13)-c1cc3c(c(=O)n1C2)COC(=O)[C@]3(O)CC` [irinotecan] the “Anaemia, Grade 3–4, %Cycles” value [1] was 1%, the “Anaemia, all grades, %Cycles” value [1] was 92% and the “Episodes of grade 3–4 neutropenia with duration <8 days” value (from here on “Episodes of grade 3–4 neutropenia”) [1] was 53%. The “Febrile neutropenia, %Patients” value [1] was 75%, the “Leukocytopenia, Grade 3–4, %Cycles” value [1] was 15% and the “Leukocytopenia, all grades, %Cycles” value [1] was 70%. For the same compound, the “Neutropenia, Grade 3–4, %Cycles” value [1] was 21%, the “Neutropenia, all grades, %Cycles” value [1] was 65% and the “Neutropenic infection, %Cycles” value [1] was 1%. The “Neutropenic infection, %Patients” value [1] was 2%, the “Number of patients with at least one grade 3–4 adverse event possibly or probably related to irinotecan” value [1] was 12 and the “Patients with at least one grade 3–4 adverse event possibly or probably related to irinotecan, %” value [1] was 29%. For the same compound, the “Thrombocytopenia, Grade 3–4, %Cycles” value [1] was 0/0%, the “Thrombocytopenia, all grades, %Cycles” value [1] was 14% and the “Alopecia, all grades, % of patients” value [2] was 71 ^b %. For the same compound, the “Anorexia, all grades, % of patients” value [2] was 12%, the “Cholinergic syndrome, all grades, % of patients” value [2] was 68 ^a % and the “Diarrhoea, Grade 3–4, % of patients” value [2] was 10%. For the same compound, the “Diarrhoea, all grades, % of patients” value [2] was 88%, the “Fatigue, Grade 3–4, % of patients” value [2] was 7% and the “Fatigue, all grades, % of patients” value [2] was 51%. The “Fever in absence of infection, Grade 3–4, % of patients” value [2] was 2%, the “Fever in absence of infection, all grades, % of patients” value [2] was 12% and the “Gastrointestinal pain, Grade 3–4, % of patients” value [2] was 2%. The “Gastrointestinal pain, all grades, % of patients” value [2] was 17%, the “Infection, Grade 3–4, % of patients” value [2] was 2% and the “Infection, all grades, % of patients” value [2] was 7%. The “Nausea, Grade 3–4, % of patients” value [2] was 15%, the “Nausea, all grades, % of patients” value [2] was 73% and the “Vomiting, Grade 3–4, % of patients” value [2] was 10%. The “Vomiting, all grades, % of patients” value [2] was 54%, the “Median time to recovery from grade 3–4 neutropenia” value (arm A (350 mg m^−2 90-min i.v. q3 weeks), range 6–14) was 7 days and the “Median number of days to grade 3–4 nadir (neutropenia)” value (arm A (350 mg m^−2 90-min i.v. q3 weeks), range 6–17) was 9 days. The “Anaemia, Grade 3–4, %Patients” value [1] was 2%, the “Anaemia, all grades, %Patients” value [1] was 98% and the “Leukocytopenia, Grade 3–4, %Patients” value [1] was 20%. For the same compound, the “Leukocytopenia, all grades, %Patients” value [1] was 73%, the “Neutropenia, Grade 3–4, %Patients” value [1] was 34% and the “Neutropenia, all grades, %Patients” value [1] was 73%. The “Thrombocytopenia, Grade 3–4, %Patients” value [1] was 0/0%, the “Thrombocytopenia, all grades, %Patients” value [1] was 24% and the “Anaemia, Grade 3–4, %Cycles” value [3] was 1%. For the same compound, the “Anaemia, all grades, %Cycles” value [3] was 87%, the “Episodes of grade 3–4 neutropenia” value [3] was 77% and the “Febrile neutropenia, %Cycles” value [3] was 2%. For the same compound, the “Febrile neutropenia, %Patients” value [3] was 5%, the “Leukocytopenia, Grade 3–4, %Cycles” value [3] was 6% and the “Leukocytopenia, all grades, %Cycles” value [3] was 53%. For the same compound, the “Neutropenia, Grade 3–4, %Cycles” value [3] was 12%, the “Neutropenia, all grades, %Cycles” value [3] was 50% and the “Number of patients with at least one grade 3–4 adverse event possibly or probably related to irinotecan” value [3] was 11. The “Patients with at least one grade 3–4 adverse event possibly or probably related to irinotecan, %” value [3] was 30%, the “Thrombocytopenia, Grade 3–4, %Cycles” value [3] was 0/0% and the “Thrombocytopenia, all grades, %Cycles” value [3] was 6%. For the same compound, the “Alopecia, all grades, % of patients” value [4] was 43%, the “Anorexia, all grades, % of patients” value [4] was 14% and the “Cholinergic syndrome, all grades, % of patients” value [4] was 41 ^a %. The “Diarrhoea, Grade 3–4, % of patients” value [4] was 24%, the “Diarrhoea, all grades, % of patients” value [4] was 76% and the “Fatigue, Grade 3–4, % of patients” value [4] was 3%. The “Fatigue, all grades, % of patients” value [4] was 38%, the “Fever in absence of infection, all grades, % of patients” value [4] was 19% and the “Gastrointestinal pain, Grade 3–4, % of patients” value [4] was 3%. The “Gastrointestinal pain, all grades, % of patients” value [4] was 16%, the “Infection, Grade 3–4, % of patients” value [4] was 5% and the “Infection, all grades, % of patients” value [4] was 11%. For the same compound, the “Nausea, Grade 3–4, % of patients” value [4] was 5%, the “Nausea, all grades, % of patients” value [4] was 73% and the “Vomiting, Grade 3–4, % of patients” value [4] was 3%. The “Vomiting, all grades, % of patients” value [4] was 57%, the “Median time to recovery from grade 3–4 neutropenia” value (arm B (125 mg m^−2 90-min i.v. weekly × 4 q6 weeks), range 2–15) was 7 days and the “Median number of days to grade 3–4 nadir (neutropenia)” value (arm B (125 mg m^−2 90-min i.v. weekly × 4 q6 weeks), range 4–13) was 7 days. The “Anaemia, Grade 3–4, %Patients” value [3] was 3%, the “Anaemia, all grades, %Patients” value [3] was 92% and the “Leukocytopenia, Grade 3–4, %Patients” value [3] was 14%. For the same compound, the “Leukocytopenia, all grades, %Patients” value [3] was 68%, the “Neutropenia, Grade 3–4, %Patients” value [3] was 25% and the “Neutropenia, all grades, %Patients” value [3] was 61%. The “Thrombocytopenia, Grade 3–4, %Patients” value [3] was 0/0%, the “Thrombocytopenia, all grades, %Patients” value [3] was 11% and the “Anaemia, Grade 3–4, %Cycles” value [5] was 4/4%. The “Anaemia, all grades, %Cycles” value [5] was 90%, the “Discontinuation due to toxicity, main reason diarrhoea” value [5] was 7% and the “Episodes of grade 3–4 neutropenia” value [5] was 84%.
